According to PMC7139405, “Real-Time 3D Imaging and Inhibition Analysis of Various Amyloid Aggregations Using Quantum Dots” (International Journal of Molecular Sciences, 2020):

Key:
Amyloid β (Aβ42) = molecular target: T1, Amyloid β (Aβ42) (Homo sapiens, UniProt P05067); assay: aggregation inhibition of isolated peptide, quantum-dot fluorescence imaging (MSHTS); format: biochemical
T1 construct: gene APP
From the text: aggregation inhibition of isolated peptide, quantum-dot fluorescence imaging (MSHTS) on Amyloid β (Aβ42) | RA inhibited the aggregation of Aβ and α-synuclein proteins in vitro in a dose-dependent manner

α-synuclein = molecular target: T2, α-synuclein (Homo sapiens, UniProt P37840); assay: aggregation inhibition of purified protein, quantum-dot fluorescence imaging (MSHTS); format: biochemical
T2 construct: gene SNCA

T1 sequence (P05067 672-713): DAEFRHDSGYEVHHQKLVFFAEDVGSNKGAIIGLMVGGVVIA

Question: For `O=C(/C=C/c1ccc(O)c(O)c1)O[C@H](Cc1ccc(O)c(O)c1)C(=O)O` [RA, rosmarinic acid], which EC50 (Amyloid β (Aβ42)) is on record?
Answer: Its EC50 is 20.6 µM.

Question: What about the EC50 (α-synuclein) of the same compound?
Answer: The EC50 was 2.1 µM.
